Earlier results on one substance are cited in patent publication US20150231284A1, “MOLECULAR PROBE FOR IMAGING OF PANCREATIC ISLET AND THE PRECURSOR, AND USE OF THE SAME” (Kyoto University, priority 2009, published 2015).

In data set [1] the test system is pancreatic islet cells. As to conditions: Document 2; cited from earlier work.
Data set [2] relates to GLP-1R-positive tumor cells. As to conditions: Document 2; cited from earlier work.

On to Lys^40(Ahx-DTPA-^111In)Exendin-4(9-39), for which the “uptake in pancreatic islets” value in data set [1] is listed as “about 0.4%”. In addition, the “uptake in the GLP-1R-positive tumor cells” value in data set [2] was “about 7.5%”.
